Entries after “also recorded” stand apart in the source; their conditions may differ.
Legend:
[1] = system: defensive burying model of active anxiety-like behavior; assay: Defensive burying test (Study 1); assay type: in vivo, rat
Source text: The defensive burying test was used to assess effects of MPZP on anxiety-like behavior [Treit et al., Pharmacol. Biochem. Behay. (1981) 15:619-626; De Boer et al., Eur. J. Pharmacol. (2003) 463:145-161]. This model has been validated by anxiolytic and anxiogenic compounds, which decrease and increase defensive burying behavior, respectively [Korte et al., Physiol. Behay. (1994) 56:115-120; De Boer et al., Eur. J. Pharmacol. (2003) 463:145-161]. For two consecutive days before defensive burying testing, animals were acclimated to the testing apparatus by placing them for 45 minutes in the testing cage (a polycarbonate rat housing cage with 2 cm of bedding covering the floor and a small hole centered on a long dimension of the cage 1 inch above the bedding to accommodate the shock probe on the subsequent test day). On the day of testing, animals were brought into the anteroom at least 2 hours before testing began. Subjects were subcutaneously pretreated with MPZP (0, 5, 20 mg/kg) in a between-subjects design 1 hour before their test session. For testing, animals were placed individually in the test cage, and a shock probe connected to a Coulbourn precision shocker (model E13-01, Coulbourn Instruments, Allentown, Pa.) delivered one 1.5 mA shock (lasting <1 s) upon contact. As soon as the animal was shocked (verified by a startle response), the shock current was deactivated, and the 10 minute test began. Contact with the shock probe under these conditions results in the rat displacing bedding material with treading-like movements of the forepaws and shoveling movements of the head, often directed toward the shock probe. Latency to the first display of burying behavior and time spent burying (in four 2.5 minute bins throughout the 10 minute test) were assessed [Korte et al., Physiol. Behay. (1994) 56:115-120]. […] The effect of MPZP on defensive burying behavior (latency to first bury and burying time) were analyzed by analysis of variance (ANOVA), in which Dose was a between-subjects factor and Time bin was a repeated measure for duration of burying.

[2] = system: animal model of alcohol dependence; assay: Operant alcohol and water self-administration in alcohol vapor-dependent and nondependent rats (Study 2); assay type: in vivo, rat; details: for alcohol self-administration (g/kg intake): 0, 5, 10, 20 mg/kg
Source text: The effect of MPZP on drinking behavior was studied in an established animal model of alcohol dependence. […] (2006) 26:11324-11332; see also Roberts et al., Alcohol Clin. Exp. Res. (1996) 20:1289-1298; Overstreet et al., Alcohol Clin. Exp. Res. (2002) 26:1259-1268; Rimondini et al., FASEB J. (2002) 16:27-35; Valdez et al., Alcohol Clin. Exp. Res. (2002) 26:1494-1501 for related models].
Animals were permitted to self-administer alcohol or water orally in a concurrent, two-lever, free-choice contingency. A continuous reinforcement (fixed ratio-1) schedule was used in which each lever press was reinforced. Animals acquired alcohol self-administration using a variation of the previously described saccharin fading free-choice operant conditioning protocol [Samson et al., Alcohol Clin. Exp. Res. (1986) 10:436-442].
The present procedure culminates in pharmacologically relevant levels of alcohol self-administration, as defined by blood alcohol levels (BALs), in nondependent animals with limited access to alcohol over a 6-week period [Roberts et al., Alcohol Clin. Exp. Res. (1999) 23:1151-1157]. The modified procedure in the present study utilized a sweetened solution (“supersac”) containing 3% glucose and 0.125% saccharin (Sigma, St. Louis, Mo.) instead of water restriction and 0.2% saccharin to initiate and maintain operant responding [Funk et al., J. Neurosci. (2006) 26:11324-11332].
Animals respond for the sweetened solution within 1-2 training sessions, making water restriction unnecessary. Operant sessions during training were conducted 5 days per week between 0900 and 1500 (lights on at 0600). Operant sessions were 30 minutes in duration, except during the initial days of training in which sessions lasted up to 2 hours to permit acquisition of responding for the sweetened solution. Alcohol (10% w/v) then was added to the sweetened solution, and once mean responding stabilized (around one week) the glucose was removed from the solution, leaving only 0.125% saccharin and 10% w/v ethanol.
Animals then were maintained on 10% w/v ethanol for at least 3 weeks, and stable responders (±25% across three consecutive sessions) were evenly divided into two groups matched for baseline responding and exposed to intermittent ethanol vapors (dependent) or air (nondependent) as described below. A total of 16 rats (dependent, n=8; nondependent, n=8) were used for this experiment.
The self-administration system comprised test chambers (Coulbourn Instruments, Allentown, Pa.) contained within wooden sound-attenuated ventilated cubicles. The test chambers were equipped with two retractable levers located 4 cm above the grid floor and 4.5 cm to either side of a small stainless steel receptacle containing two drinking cups. […] Tap water was delivered to one dish, and the experimental solution (e.g., sweetened solution or alcohol) was delivered to the other dish. Fluid delivery and recording of operant self-administration were controlled by a computer. Lever presses were not recorded during the 0.5 second inter-response time-out interval when solution was being delivered.
A recent modification of the alcohol dependence model was made to reflect the natural progression of alcohol dependence in which alcohol exposure occurs in a series of extended exposures followed by periods of withdrawal [O′Dell et al., Alcohol Clin. Exp. Res. (2004) 28:1676-1682]. Chronic exposure to intermittent alcohol vapor exposure elicits even higher alcohol self-administration than continuous vapor (Ibid.), and the intermittent procedure therefore was used to induce dependence in trained animals in the present study. Vapors were delivered on a 14 hours on/10 hours off schedule for 4 weeks before post-vapor testing began.
Beginning 4 weeks after the onset of vapor exposure, post-vapor alcohol self-administration testing was conducted 2 times per week during acute withdrawal (6-8 hours after cessation of daily vapor exposure). […]

[3] = system: binge drinking of sweetened alcohol; details: Ji et al. 2007, in review; cited from earlier work

SMILES: COCCN(CCOC)c1cc(C)nc2c(-c3ccc(OC)cc3C)c(C)nn12 [MPZP, N,N-bis(2-methoxyethyl)-3-(4-methoxy-2-methylphenyl)-2,5-dimethyl-pyrazolo[1,5-a]pyrimidin-7-amine]
- total duration of defensive burying behavior ([1]; 0, 5, 20 mg/kg s.c., systemic pretreatment): dose-dependently reduced; also recorded: reduced defensive burying time
- duration of burying across the 10-minute observation period ([1]; 20 mg/kg s.c., 1 hour before test, vs vehicle): significantly reduced
- latency to start burying ([1]; 5 and 20 mg/kg s.c., 1 hour before test, vs vehicle): increased the latency to start burying
- ED50 ([2]; Rattus norvegicus, sc, dependent animals, acute withdrawal (6-8 hours), s.c. 1 hour before 30 minute session, read-out: ED50, reduction of alcohol self-administration (sigmoidal dose-response fit)): 10.7 mg/kg
- alcohol self-administration (g/kg intake) ([2]; dependent animals, 20 mg/kg vs vehicle): dose-dependently reduced; also recorded: significantly reduced
- alcohol responses ([2]; dependent animals, 5 mg/kg): 72±14
- alcohol responses ([2]; dependent animals, 10 mg/kg): 70±7
- alcohol responses ([2]; dependent animals, 20 mg/kg): 47±7
- water self-administration (responses) ([2]; dependent or nondependent animals): no effect
- alcohol self-administration (g/kg intake) ([2]; nondependent animals): not nondependent animals; also recorded: no effect
- alcohol responses ([2]; nondependent animals, 5 mg/kg): 37±5
- alcohol responses ([2]; nondependent animals, 10 mg/kg): 32±5
- alcohol responses ([2]; nondependent animals, 20 mg/kg): 33±4
- nondependent binge drinking of sweetened alcohol [3]: had no effect
